Reference: patent US9688678B2, “Oxindole compounds carrying a nitrogen-bound spiro substituent and use thereof for treating vasopressin-related diseases” (AbbVie Deutschland GmbH & Co. KG, priority 2014, dated 2017)
pKi: −log10 of the molar value.

Tests used:
[1] = target: human vasopressin V1b receptor (Homo sapiens (Human), UniProt P47901); experiment: Vasopressin V1b receptor binding assay; settings: membranes from CHO-K1 cells, displacement of 3H-AVP
Protocol: The test substances were dissolved in a concentration of 5 mM in 100% DMSO and further diluted to 5×10^−4 M to 5×10^−9 M. These serial DMSO predilutions were diluted 1:10 with assay buffer. The substance concentration was further diluted 1:5 in the assay mixture resulting in 2% DMSO in the mixture. All dilutions were performed in a Biomek NX automation workstation (Beckman)
The membrane pellet was again homogenized and centrifuged as described and subsequently taken up in 50 mM Tris-HCl, pH 7.4, homogenized and stored in aliquots frozen in liquid nitrogen at −190° C.
(§1) The incubation buffer was: 50 mM Tris, 10 mM MgCl2, 0.1% BSA, pH 7.4.
All determinations were carried out as duplicate determinations. […] The liquid scintillation measurement took place in a Microbeta TriLux 12 (Wallac). Analysis:
(§2) The binding parameters were calculated by nonlinear regression in SAS.

[2] = target: human vasopressin V1a receptor (Homo sapiens (Human), UniProt P37288); experiment: Vasopressin V1a receptor binding assay; settings: selectivity quotient, human V1a vs human V1b receptor
Protocol: The test substances were dissolved in a concentration of 5 mM M in DMSO. Further dilution of these DMSO solutions took place as described for V1b.
The membrane pellet was again homogenized in a High-Pressure-Homogenizer, Polytec 50K at 1500 PSI (Heinemann, Germany) and subsequently taken up in 50 mM Tris-HCl, pH 7.4, homogenized and stored in aliquots frozen in liquid nitrogen at −190° C.
as §1
Duplicate determinations were carried out.
After incubation (60 minutes at room temperature), the samples were processed as described for V1b.
as §2

human vasopressin V1a receptor, sequence (P37288 whole entry): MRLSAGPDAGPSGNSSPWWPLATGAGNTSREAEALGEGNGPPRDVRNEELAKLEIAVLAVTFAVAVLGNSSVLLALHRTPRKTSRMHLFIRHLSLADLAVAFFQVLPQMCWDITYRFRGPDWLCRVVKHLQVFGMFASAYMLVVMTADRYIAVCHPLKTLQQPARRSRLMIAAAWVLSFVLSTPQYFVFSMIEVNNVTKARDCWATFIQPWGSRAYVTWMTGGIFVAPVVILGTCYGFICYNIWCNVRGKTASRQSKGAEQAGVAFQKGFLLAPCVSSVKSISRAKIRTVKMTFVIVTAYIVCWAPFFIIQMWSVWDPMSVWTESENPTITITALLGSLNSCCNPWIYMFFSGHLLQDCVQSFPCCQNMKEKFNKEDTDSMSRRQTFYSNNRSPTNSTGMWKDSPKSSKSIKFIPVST
human vasopressin V1b receptor, sequence (P47901 whole entry): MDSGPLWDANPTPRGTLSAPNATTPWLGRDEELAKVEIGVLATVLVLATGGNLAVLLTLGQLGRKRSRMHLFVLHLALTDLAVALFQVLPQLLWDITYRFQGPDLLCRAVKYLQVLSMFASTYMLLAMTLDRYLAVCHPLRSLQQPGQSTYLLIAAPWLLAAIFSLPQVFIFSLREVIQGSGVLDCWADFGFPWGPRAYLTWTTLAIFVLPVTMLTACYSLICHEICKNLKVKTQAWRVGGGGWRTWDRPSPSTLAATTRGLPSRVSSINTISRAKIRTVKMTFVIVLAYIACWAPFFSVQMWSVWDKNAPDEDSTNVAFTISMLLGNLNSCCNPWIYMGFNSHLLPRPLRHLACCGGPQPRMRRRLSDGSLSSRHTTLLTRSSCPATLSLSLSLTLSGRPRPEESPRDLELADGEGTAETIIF

Compound | pKi [1] | Ki(h-V1a)/ Ki(h-V1b) [2]
CCOc1ccc(OC)cc1C1(N2CC3(CN(C4CCN(C)CC4)C3)C2)C(=O)N(S(=O)(=O)c2ccc(OC)cn2)c2ccc(C#N)cc21 (racemic) [Example 1, (±)-3-(2-ethoxy-5-methoxy-phenyl)-1-[(5-methoxy-2-pyridyl)sulfonyl]-3-[2-(1-methyl-4-piperidyl)-2,6-diazaspiro[3.3]heptan-6-yl]-2-oxo-indoline-5-carbonitrile] | 8.00 to 9.00 | +++ (>75)
CCOc1ccc(OC)cc1C1(N2CC3(CN(C4CCN(C)CC4)C3)C2)C(=O)N(S(=O)(=O)c2ccc(OC)cc2OC)c2ccc(C#N)cc21 (racemic) [Example 2, (±)-1-(2,4-dimethoxyphenyl)sulfonyl-3-(2-ethoxy-5-methoxy-phenyl)-3-[2-(1-methyl-4-piperidyl)-2,6-diazaspiro[3.3]heptan-6-yl]-2-oxo-indoline-5-carbonitrile] | 7.00 to 8.00 | ++ (25-75)
CCOc1ccc(OC)cc1C1(N2CC3(CN(C4CCN(C)CC4)C3)C2)C(=O)N(S(=O)(=O)c2cccc3cccnc23)c2ccc(C#N)cc21 (racemic) [Example 3, (±)-3-(2-ethoxy-5-methoxy-phenyl)-3-[2-(1-methyl-4-piperidyl)-2,6-diazaspiro[3.3]heptan-6-yl]-2-oxo-1-(8-quinolylsulfonyl)indoline-5-carbonitrile] | 7.00 to 8.00 | +++ (>75)
CCOc1ccc(OC)cc1C1(N2CC3(CN(C4CCN(C)CC4)C3)C2)C(=O)N(S(=O)(=O)c2ccc(OC)cc2)c2ccc(C#N)cc21 (racemic) [Example 5, (±)-3-(2-ethoxy-5-methoxy-phenyl)-1-(4-methoxyphenyl)sulfonyl-3-[2-(1-methyl-4-piperidyl)-2,6-diazaspiro[3.3]heptan-6-yl]-2-oxo-indoline-5-carbonitrile] | 8.00 to 9.00 | + (10-<25)
CCOc1cc(F)ccc1C1(N2CC3(CN(C4CCN(C)CC4)C3)C2)C(=O)N(S(=O)(=O)c2ccc(OC)cn2)c2ccc(C#N)cc21 (racemic) [Example 7, (±)-3-(2-ethoxy-4-fluoro-phenyl)-1-[(5-methoxy-2-pyridyl)sulfonyl]-3-[2-(1-methyl-4-piperidyl)-2,6-diazaspiro[3.3]heptan-6-yl]-2-oxo-indoline-5-carbonitrile] | 8.00 to 9.00 | +++ (>75)
CCOc1ccccc1C1(N2CC3(CN(C4CCN(C)CC4)C3)C2)C(=O)N(S(=O)(=O)c2ccc(OC)cn2)c2ccc(C#N)cc21 (racemic) [Example 8, (±)-3-(2-ethoxyphenyl)-1-[(5-methoxy-2-pyridyl)sulfonyl]-3-[2-(1-methyl-4-piperidyl)-2,6-diazaspiro[3.3]heptan-6-yl]-2-oxo-indoline-5-carbonitrile] | 8.00 to 9.00 | +++ (>75)
CCOc1ncccc1C1(N2CC3(CN(C4CCN(C)CC4)C3)C2)C(=O)N(S(=O)(=O)c2ccc(OC)cn2)c2ccc(C#N)cc21 (racemic) [Example 9, (±)-3-(2-ethoxy-3-pyridyl)-1-[(5-methoxy-2-pyridyl)sulfonyl]-3-[2-(1-methyl-4-piperidyl)-2,6-diazaspiro[3.3]heptan-6-yl]-2-oxo-indoline-5-carbonitrile] | 8.00 to 9.00 | +++ (>75)
CCOc1ccc(OC)cc1C1(N2CC3(CN(C4CCN(C5COC5)CC4)C3)C2)C(=O)N(S(=O)(=O)c2ccc(OC)cn2)c2ccc(C#N)cc21 (racemic) [Example 10, (±)-3-(2-ethoxy-5-methoxy-phenyl)-1-[(5-methoxy-2-pyridyl)sulfonyl]-3-[2-[1-(oxetan-3-yl)-4-piperidyl]-2,6-diazaspiro[3.3]heptan-6-yl]-2-oxo-indoline-5-carbonitrile] | 8.00 to 9.00 | +++ (>75)
CCOc1ncccc1C1(N2CC3(CN(C4CCN(C)CC4)C3)C2)C(=O)N(S(=O)(=O)c2ccc(OC)cc2)c2ccc(C#N)cc21 (racemic) [Example 12, (±)-3-(2-ethoxy-3-pyridyl)-1-(4-methoxyphenyl)sulfonyl-3-[2-(1-methyl-4-piperidyl)-2,6-diazaspiro[3.3]heptan-6-yl]-2-oxo-indoline-5-carbonitrile] | 7.00 to 8.00 | 
CCOc1ccc(OC)cc1C1(N2CC3(CN(C4CCN(C)CC4)C3)C2)C(=O)N(S(=O)(=O)c2ccc(C#N)cc2)c2ccc(C#N)cc21 (racemic) [Example 14, (±)-1-(4-cyanophenyl)sulfonyl-3-(2-ethoxy-5-methoxy-phenyl)-3-[2-(1-methyl-4-piperidyl)-2,6-diazaspiro[3.3]heptan-6-yl]-2-oxo-indoline-5-carbonitrile] | 7.00 to 8.00 | +++ (>75)
CCOc1ccc(OC)cc1C1(N2CC3(CN(C4CCN(C)CC4)C3)C2)C(=O)N(S(=O)(=O)c2ccc(C)cc2)c2ccc(C#N)cc21 (racemic) [Example 15, (±)-3-(2-ethoxy-5-methoxy-phenyl)-3-[2-(1-methyl-4-piperidyl)-2,6-diazaspiro[3.3]heptan-6-yl]-2-oxo-1-(p-tolylsulfonyl)indoline-5-carbonitrile] | 7.00 to 8.00 | ++ (25-75)
CCOc1ccc(OC)cc1C1(N2CC3(CN(C4CCN(C)CC4)C3)C2)C(=O)N(S(=O)(=O)c2ccc(F)cc2)c2ccc(C#N)cc21 (racemic) [Example 16, (±)-3-(2-ethoxy-5-methoxy-phenyl)-1-(4-fluorophenyl)sulfonyl-3-[2-(1-methyl-4-piperidyl)-2,6-diazaspiro[3.3]heptan-6-yl]-2-oxo-indoline-5-carbonitrile] | 7.00 to 8.00 | ++ (25-75)
CCOc1ccc(OC)cc1C1(N2CC3(CC(N4CCN(C)CC4)C3)C2)C(=O)N(S(=O)(=O)c2ccc(OC)cn2)c2ccc(C#N)cc21 (racemic) [Example 17, (±)-3-(2-ethoxy-5-methoxy-phenyl)-1-[(5-methoxy-2-pyridyl)sulfonyl]-3-[2-(4-methylpiperazin-1-yl)-6-azaspiro[3.3]heptan-6-yl]-2-oxo-indoline-5-carbonitrile] | > 9.00 | +++ (>75)
COc1ccc(S(=O)(=O)N2C(=O)C(c3ccccc3OC)(N3CC4(CN(C5CCN(C)CC5)C4)C3)c3cc(C#N)ccc32)nc1 (racemic) [Example 18, (±)3-(2-methoxyphenyl)-1-[(5-methoxy-2-pyridyl)sulfonyl]-3-[2-(1-methyl-4-piperidyl)-2,6-diazaspiro[3.3]heptan-6-yl]-2-oxo-indoline-5-carbonitrile] | > 9.00 | +++ (>75)
CCOc1ccc(OC)cc1C1(N2CC3(CN(C4CCN(C(C)C)CC4)C3)C2)C(=O)N(S(=O)(=O)c2ccc(OC)cn2)c2ccc(C#N)cc21 (racemic) [Example 19, (±)-3-(2-ethoxy-5-methoxy-phenyl)-3-[2-(1-isopropyl-4-piperidyl)-2,6-diazaspiro[3.3]heptan-6-yl]-1-[(5-methoxy-2-pyridyl)sulfonyl]-2-oxo-indoline-5-carbonitrile] | > 9.00 | +++ (>75)
CCOc1ccc(OC)cc1C1(N2CC3(CN(C4CCN(CCOC)CC4)C3)C2)C(=O)N(S(=O)(=O)c2ccc(OC)cn2)c2ccc(C#N)cc21 (racemic) [Example 20, (±)-3-(2-ethoxy-5-methoxy-phenyl)-3-[2-[1-(2-methoxyethyl)-4-piperidyl]-2,6-diazaspiro[3.3]heptan-6-yl]-1-[(5-methoxy-2-pyridyl)sulfonyl]-2-oxo-indoline-5-carbonitrile] | 8.00 to 9.00 | +++ (>75)
COc1ccc(S(=O)(=O)N2C(=O)C(c3cc(OC)ccc3OC)(N3CC4(CN(C5CCN(C)CC5)C4)C3)c3cc(C#N)ccc32)nc1 (racemic) [Example 21, (±)-3-(2,5-dimethoxyphenyl)-1-[(5-methoxy-2-pyridyl)sulfonyl]-3-[2-(1-methyl-4-piperidyl)-2,6-diazaspiro[3.3]heptan-6-yl]-2-oxo-indoline-5-carbonitrile] | > 9.00 | + (10-<25)
CCOc1ccc(OC)cc1C1(N2CC3(CN(C4CCN(C)CC4)C3)C2)C(=O)N(S(=O)(=O)c2ccc(OC)cn2)c2cc(C#N)ccc21 (racemic) [Example 29, (±)-3-(2-ethoxy-5-methoxy-phenyl)-1-[(5-methoxy-2-pyridyl)sulfonyl]-3-[2-(1-methyl-4-piperidyl)-2,6-diazaspiro[3.3]heptan-6-yl]-2-oxo-indoline-6-carbonitrile] | 8.00 to 9.00 | 
CCOc1ccc(OC)cc1C1(N2CC3(CN(C4CCN(C)CC4)C3)C2)C(=O)N(S(=O)(=O)c2ccc(OC)cc2)c2ccc(C#N)cc21 (single isomer, unassigned; (-)) [Example 6, (−)-3-(2-ethoxy-5-methoxy-phenyl)-1-(4-methoxyphenyl)sulfonyl-3-[2-(1-methyl-4-piperidyl)-2,6-diazaspiro[3.3]heptan-6-yl]-2-oxo-indoline-5-carbonitrile] | 7.00 to 8.00 | 
CCOc1ccc(OC)cc1[C@]1(N2CC3(CN(C4CCN(C)CC4)C3)C2)C(=O)N(S(=O)(=O)c2cccc(OC)n2)c2ccc(C#N)cc21 [Example 32, (3S)-3-(2-ethoxy-5-methoxy-phenyl)-1-[(6-methoxy-2-pyridyl)sulfonyl]-3-[2-(1-methyl-4-piperidyl)-2,6-diazaspiro[3.3]heptan-6-yl]-2-oxo-indoline-5-carbonitrile] | 7.00 to 8.00 | 
